This note sets out measurements from patent publication US20120142584A1, “NOVEL TRANSPORTER CONSTRUCTS AND TRANSPORTER CARGO CONJUGATE MOLECULES” (priority 2008, published 2012).

The data set can be described thus: digestion of TAT derived transporter constructs in 10% and 50% human serum at 37° C. Particulars: 10% and 50% human serum at 37° C. until complete degradation.

Protocol: The table shown in FIG. 2 illustrates the amino acid sequences of these TAT derived transporter constructs with respect to their molecular weight (Mw) and pl-values (see FIG. 2). • The digestion was carried out in 10% and 50% human serum at 37° C. until complete degradation of these TAT derived transporters construct.

With `N=C(N)NCCC[C@H](NC(=O)[C@H](CCCNC(=N)N)NC(=O)[C@H](CCCNC(=N)N)NC(=O)[C@H](CCC(N)=O)NC(=O)[C@H](CCCNC(=N)N)NC(=O)[C@H](CCCNC(=N)N)NC(=O)[C@H](CCCCN)NC(=O)[C@H](CCCCN)NC(=O)[C@@H](N)CCCNC(=N)N)C(=O)O` [L-TAT], the “degradation in human serum” value is reported as “degraded too early”.
